One block for each molecule: values may come before it.
Columns and labels:
[1] = tested on: rat OPC; experiment: Monoculture rat OPC differentiation assay; settings: alone or in combination with miconazole
[2] = target: T1, ABHD5 (Homo sapiens, UniProt Q8WTS1); experiment: LiPIP; assay type: binding; settings: ligand at both 5 and 25 μM; probe 10 μM; HEK293T cells
T1 sequence (Q8WTS1 1-349): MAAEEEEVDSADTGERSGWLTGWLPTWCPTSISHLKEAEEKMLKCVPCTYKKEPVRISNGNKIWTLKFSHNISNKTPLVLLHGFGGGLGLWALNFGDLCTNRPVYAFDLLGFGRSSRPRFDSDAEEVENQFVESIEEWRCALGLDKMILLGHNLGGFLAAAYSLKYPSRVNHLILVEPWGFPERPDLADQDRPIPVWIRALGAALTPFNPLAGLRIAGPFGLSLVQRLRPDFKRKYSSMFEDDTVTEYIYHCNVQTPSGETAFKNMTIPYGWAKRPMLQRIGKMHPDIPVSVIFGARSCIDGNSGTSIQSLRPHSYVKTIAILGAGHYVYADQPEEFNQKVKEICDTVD

[3] = target: T2, ABHD10 (Homo sapiens, UniProt Q9NUJ1); experiment: LiPIP probe competition in HEK293T cells, off-target ABHD10; assay type: binding; settings: ligand 25 μM
T2 sequence (Q9NUJ1 53-306): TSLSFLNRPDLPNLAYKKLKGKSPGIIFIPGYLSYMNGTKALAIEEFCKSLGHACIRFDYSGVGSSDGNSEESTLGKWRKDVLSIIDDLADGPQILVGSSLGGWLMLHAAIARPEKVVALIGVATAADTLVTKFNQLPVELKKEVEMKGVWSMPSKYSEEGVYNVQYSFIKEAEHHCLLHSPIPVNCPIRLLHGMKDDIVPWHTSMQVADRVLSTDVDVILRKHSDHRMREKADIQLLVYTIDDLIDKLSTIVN

[4] = target: T3, PNPLA2 (Homo sapiens, UniProt Q96AD5); experiment: LiPIP probe competition in HEK293T cells, PNPLA2; assay type: binding; settings: unaltered lipid probe enrichment ratio
T3 sequence (Q96AD5 1-504): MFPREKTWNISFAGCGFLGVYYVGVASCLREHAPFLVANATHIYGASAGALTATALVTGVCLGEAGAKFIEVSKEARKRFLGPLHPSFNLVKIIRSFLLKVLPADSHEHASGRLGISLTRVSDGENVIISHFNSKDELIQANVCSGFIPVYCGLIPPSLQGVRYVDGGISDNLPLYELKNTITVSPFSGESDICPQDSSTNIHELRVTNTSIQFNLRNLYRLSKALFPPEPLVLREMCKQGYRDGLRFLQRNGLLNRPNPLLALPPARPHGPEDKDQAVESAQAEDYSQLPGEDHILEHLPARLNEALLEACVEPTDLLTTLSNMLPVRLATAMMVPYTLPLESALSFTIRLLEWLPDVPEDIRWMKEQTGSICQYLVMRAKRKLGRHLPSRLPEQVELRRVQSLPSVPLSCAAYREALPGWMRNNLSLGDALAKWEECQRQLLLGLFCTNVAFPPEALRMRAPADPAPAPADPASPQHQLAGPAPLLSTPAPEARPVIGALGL

[5] = target: T4, mSGPL1 (Mus musculus, UniProt Q8R0X7); experiment: AEA-DA probe interactions with mSGPL1 in vitro; assay type: binding; settings: Fig. S3c
T4 sequence (Q8R0X7 1-568): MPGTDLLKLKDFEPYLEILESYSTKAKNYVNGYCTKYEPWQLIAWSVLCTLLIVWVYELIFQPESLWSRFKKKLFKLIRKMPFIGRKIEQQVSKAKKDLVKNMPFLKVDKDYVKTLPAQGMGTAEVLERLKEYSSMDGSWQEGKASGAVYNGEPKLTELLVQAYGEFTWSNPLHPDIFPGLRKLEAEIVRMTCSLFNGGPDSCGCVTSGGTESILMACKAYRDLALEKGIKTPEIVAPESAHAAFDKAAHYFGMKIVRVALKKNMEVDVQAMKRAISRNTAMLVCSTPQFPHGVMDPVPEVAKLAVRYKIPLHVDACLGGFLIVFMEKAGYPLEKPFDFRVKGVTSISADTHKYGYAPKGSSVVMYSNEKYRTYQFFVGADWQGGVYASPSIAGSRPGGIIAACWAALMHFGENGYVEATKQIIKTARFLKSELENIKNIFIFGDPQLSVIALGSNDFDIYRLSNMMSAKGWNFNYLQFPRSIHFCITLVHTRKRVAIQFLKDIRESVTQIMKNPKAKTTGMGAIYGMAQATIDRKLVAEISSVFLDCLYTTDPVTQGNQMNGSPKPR

[6] = target: T5, hSGPL1 (Homo sapiens, UniProt O95470); assay type: biochemical
T5 sequence (O95470 1-568): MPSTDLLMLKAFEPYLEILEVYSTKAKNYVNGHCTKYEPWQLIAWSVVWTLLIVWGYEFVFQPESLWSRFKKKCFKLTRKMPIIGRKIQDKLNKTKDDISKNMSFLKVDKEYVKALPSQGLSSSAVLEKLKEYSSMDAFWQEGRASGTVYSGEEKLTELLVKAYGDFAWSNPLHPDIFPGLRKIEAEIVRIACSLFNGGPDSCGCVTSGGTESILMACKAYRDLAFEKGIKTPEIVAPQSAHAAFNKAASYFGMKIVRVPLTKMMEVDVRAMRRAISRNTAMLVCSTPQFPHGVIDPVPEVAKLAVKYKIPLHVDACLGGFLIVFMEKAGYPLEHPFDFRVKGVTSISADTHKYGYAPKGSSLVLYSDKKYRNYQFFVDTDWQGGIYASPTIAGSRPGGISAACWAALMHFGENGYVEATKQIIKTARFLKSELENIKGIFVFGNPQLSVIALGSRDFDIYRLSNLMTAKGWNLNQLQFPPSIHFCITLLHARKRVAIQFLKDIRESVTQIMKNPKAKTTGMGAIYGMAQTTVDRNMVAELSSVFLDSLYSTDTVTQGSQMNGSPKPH

[7] = tested on: Neuro2a cells; experiment: Endogenous S1P content of Neuro2a cells by targeted LC-MS/MS; assay type: cell-based, mouse; settings: 6 h treatment
[8] = tested on: oligodendrocyte precursor cell (OPC); settings: cited from earlier work
[9] = target: CLPP (Mus musculus, UniProt O88696); experiment: LiPIP in Neuro2a cells, CLPP; assay type: binding; settings: drug 30 μM, lipid probe 10 μM
Chain of CLPP (O88696 53-272): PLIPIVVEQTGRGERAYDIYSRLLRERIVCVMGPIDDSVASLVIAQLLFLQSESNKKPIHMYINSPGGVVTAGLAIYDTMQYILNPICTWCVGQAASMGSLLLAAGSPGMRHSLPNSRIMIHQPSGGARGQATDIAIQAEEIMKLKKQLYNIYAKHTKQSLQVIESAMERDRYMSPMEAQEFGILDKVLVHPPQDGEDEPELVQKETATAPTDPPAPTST

[10] = target: T6, SGPL1 (Mus musculus, UniProt Q8R0X7); experiment: LiPIP in Neuro2a cells, SGPL1; assay type: binding; settings: drug 30 μM, lipid probe 10 μM
T6 sequence (Q8R0X7 1-568): T4 sequence (Q8R0X7 1-568)

[11] = target: T7, EPHX1 (Mus musculus, UniProt Q9D379); experiment: LiPIP in Neuro2a cells, EPHX1; assay type: binding; settings: drug 30 μM, lipid probe 10 μM
T7 sequence (Q9D379 1-455): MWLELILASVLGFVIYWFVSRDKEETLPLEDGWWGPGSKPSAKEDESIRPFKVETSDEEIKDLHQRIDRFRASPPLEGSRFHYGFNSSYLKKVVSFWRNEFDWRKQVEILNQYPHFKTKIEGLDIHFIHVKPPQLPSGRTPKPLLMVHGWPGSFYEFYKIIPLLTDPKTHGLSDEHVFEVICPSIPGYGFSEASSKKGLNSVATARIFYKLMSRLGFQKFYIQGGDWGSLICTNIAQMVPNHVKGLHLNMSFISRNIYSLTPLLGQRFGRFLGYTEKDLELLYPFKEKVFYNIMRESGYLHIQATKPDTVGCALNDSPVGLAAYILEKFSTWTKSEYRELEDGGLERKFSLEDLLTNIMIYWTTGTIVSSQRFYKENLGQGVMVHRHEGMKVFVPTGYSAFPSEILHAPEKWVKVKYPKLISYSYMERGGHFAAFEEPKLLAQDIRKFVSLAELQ

[12] = target: T8, TMEM97 (Mus musculus, UniProt Q8VD00); experiment: LiPIP in Neuro2a cells, TMEM97; assay type: binding; settings: drug 30 μM, lipid probe 10 μM
T8 sequence (Q8VD00 1-176): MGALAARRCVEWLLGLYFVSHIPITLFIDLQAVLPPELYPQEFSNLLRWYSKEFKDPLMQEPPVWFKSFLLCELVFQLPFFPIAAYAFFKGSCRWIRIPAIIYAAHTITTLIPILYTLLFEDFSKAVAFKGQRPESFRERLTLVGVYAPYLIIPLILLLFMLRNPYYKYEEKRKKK

[13] = target: T4, mSGPL1; experiment: Gel-based blockade of AEA-DA labeling of recombinant mSGPL1 in HEK293T cells; assay type: binding; settings: recombinant mSGPL1 expressed in HEK293T cells; AEA-DA 2 μM
[14] = target: T4, mSGPL1; assay type: biochemical; settings: tested at concentrations up to 200 μM
[15] = target: T9, rSGPL1 (Rattus norvegicus, UniProt Q8CHN6); assay type: biochemical; settings: tested at concentrations up to 200 μM
T9 sequence (Q8CHN6 1-568): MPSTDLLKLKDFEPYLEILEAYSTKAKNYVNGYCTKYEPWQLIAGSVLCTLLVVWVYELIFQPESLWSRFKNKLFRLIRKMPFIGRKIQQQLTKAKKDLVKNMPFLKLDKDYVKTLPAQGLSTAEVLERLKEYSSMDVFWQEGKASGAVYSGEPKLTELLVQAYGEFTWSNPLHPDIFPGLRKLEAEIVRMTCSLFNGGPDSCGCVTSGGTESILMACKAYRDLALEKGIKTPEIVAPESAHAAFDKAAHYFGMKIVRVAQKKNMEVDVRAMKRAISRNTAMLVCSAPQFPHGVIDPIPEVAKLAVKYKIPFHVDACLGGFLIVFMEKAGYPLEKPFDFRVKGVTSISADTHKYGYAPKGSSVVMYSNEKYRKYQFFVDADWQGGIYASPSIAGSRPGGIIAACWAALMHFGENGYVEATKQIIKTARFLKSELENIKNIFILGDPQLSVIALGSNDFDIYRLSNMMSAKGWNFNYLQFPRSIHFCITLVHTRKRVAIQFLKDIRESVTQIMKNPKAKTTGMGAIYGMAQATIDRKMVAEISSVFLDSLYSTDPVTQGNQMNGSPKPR

[16] = target: T10, EPHX2 (Homo sapiens, UniProt P34913); experiment: LiPIP probe competition in HEK293T cells, off-target EPHX2; assay type: binding; settings: ligand 25 μM
T10 sequence (P34913 1-555): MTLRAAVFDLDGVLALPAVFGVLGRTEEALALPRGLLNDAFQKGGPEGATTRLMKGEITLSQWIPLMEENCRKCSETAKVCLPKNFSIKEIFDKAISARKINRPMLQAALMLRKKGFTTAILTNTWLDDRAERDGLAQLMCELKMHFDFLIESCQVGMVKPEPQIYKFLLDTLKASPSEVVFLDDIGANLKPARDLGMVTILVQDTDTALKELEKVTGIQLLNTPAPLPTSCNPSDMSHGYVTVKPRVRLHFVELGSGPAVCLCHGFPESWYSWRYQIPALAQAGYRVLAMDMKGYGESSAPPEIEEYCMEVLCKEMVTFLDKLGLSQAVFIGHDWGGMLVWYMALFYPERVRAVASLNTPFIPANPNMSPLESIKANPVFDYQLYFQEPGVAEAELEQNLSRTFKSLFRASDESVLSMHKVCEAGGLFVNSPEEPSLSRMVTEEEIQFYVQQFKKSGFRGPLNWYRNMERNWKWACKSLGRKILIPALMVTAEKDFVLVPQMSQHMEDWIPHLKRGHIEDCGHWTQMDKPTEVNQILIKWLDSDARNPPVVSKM

Compound: C[C@@H]1CN(c2nnc(Cc3ccccc3)c3ccc(C#N)cc23)CCN1c1ccc(C#N)cn1 [compound 11, (R)-1-benzyl-4-(4-(5-cyanopyridin-2-yl)-3-methylpiperazin-1-yl)phthalazine-6-carbonitrile]
effect on OPC differentiation (MBP+ cells) [1]: did not promote OPC differentiation

Compound: CCCCCCCCc1ccc(CC[C@](N)(CO)COP(=O)(O)O)cc1 [(S)-pFTY720]
effect on OPC differentiation (MBP+ cells) [1]: no impact on OPC differentiation

Compound: CCCCCCCCCCCCC/C=C/[C@@H](O)[C@@H](N)COP(=O)(O)O [S1P, sphingosine 1-phosphate]
blockade of AEA-DA probe interactions with mSGPL1 in vitro [5]: inhibited AEA-DA binding to SGPL1

Compound: Clc1ccc(COC(Cn2ccnc2)c2ccc(Cl)cc2Cl)c(Cl)c1 (stereo not drawn) [miconazole]
IC50 [6]: 6.5 µM | maximal inhibition of hSGPL1 (plateau) ([6]; fluorogenic S1P substrate analog): 40% | effect on endogenous S1P content [7]: increased the endogenous S1P content | OPC differentiation by phenotypic screening [8]: promote oligodendrocyte precursor cell (OPC) differentiation | effect on OPC differentiation (MBP+ cells) [1]: promotion of rat OPC differentiation

Compound: C[C@@H](c1ncncc1F)[C@](O)(Cn1cncn1)c1ccc(F)cc1F [voriconazole]
SILAC ratio (light/heavy), CLPP [9]: ~ 1.0 | SILAC ratio (light/heavy), SGPL1 [10]: ~ 1.0 | SILAC ratio (light/heavy), EPHX1 [11]: ~ 1.0 | SILAC ratio (light/heavy), TMEM97 [12]: ~ 1.0 | blockade of AEA-DA probe binding to mSGPL1 [13]: but not voriconazole | blockade of AEA-DA probe interactions with mSGPL1 in vitro [5]: but not voriconazole | inhibition of mSGPL1 activity [14]: did not inhibit | inhibition of rSGPL1 activity [15]: did not inhibit | inhibition of hSGPL1 activity ([6]; tested at concentrations up to 200 μM): did not inhibit | OPC differentiation by phenotypic screening [8]: inactive

More lines, now with the values ahead:

blocking the A-DA or AEA-DA probe interaction with ABHD5 [2]: > 80% | SILAC ratio (LiPIP probe displacement), ABHD10 [3]: ≥ 3.0 | engagement of PNPLA2 (lipid probe enrichment ratio) [4]: not directly engaged
Compound: Cc1ccc2c(CC(=O)N3CCN(S(=O)(=O)c4ccc5c(c4)OCCO5)CC3)coc2c1 [SR-4559]

blocking the A-DA or AEA-DA probe interaction with ABHD5 [2]: > 80% | SILAC ratio (LiPIP probe displacement), EPHX2 [16]: ≥ 3.0 | engagement of PNPLA2 (lipid probe enrichment ratio) [4]: not directly engaged
Compound: CCCCNC(=O)Nc1ccc2c(c1)N(C)C(=O)c1ccccc1S2 [SR-4995]
